Key:
[1] = 101 kPa, Liquid, Vibrating tube method
[2] = xn = mol fraction of the nth substance listed; settings: 101 kPa, Liquid, Vibrating tube method, x2 = 0

O [water]
[1]
Settings	mass density [kg/m3]
274.15 K	999.899
275.15 K	999.94
276.15 K	999.964
277.15 K	999.972
278.15 K	999.964
279.15 K	999.94
280.15 K	999.901
281.15 K	999.848
282.15 K	999.781
283.15 K	999.699
323.15 K	988.03
333.15 K	983.191

NC=O [formamide]
[1]
Settings	mass density [kg/m3]
278.15 K	1146.62
288.15 K	1138.17
298.15 K	1129.73
308.15 K	1121.22
323.15 K	1108.46
333.15 K	1099.88

O [water] + NC=O
[2]
Settings	mass density [kg/m3]
274.15 K	999.899
275.15 K	999.94
276.15 K	999.964
277.15 K	999.972
278.15 K	999.964
279.15 K	999.94
280.15 K	999.901
281.15 K	999.848
282.15 K	999.781
283.15 K	999.699
323.15 K	988.03
333.15 K	983.191

Reference: the NIST ThermoML archive (doi:10.1021/acs.jced.6b00786)
